Tested on: HL-60, KG-1, MonoMac-1 and Kasumi-1 AML cell lines
Assay: Cell viability of AML cell lines by flow cytometry (7-AAD/Hoechst, volumetric count)
Type: cell-based, human
Conditions: subtype-specific 5HTR antagonists, 0.1, 1 and 10 μM, 72 h
Experimental: FIG. 1. […] 10^6 HL-60, KG-1, MonoMac-1 and Kasumi-1 cells per mL in complete RPMI media were treated with 0.1, 1 and 10 μM Apomorphine for 72 h. […] Cells were stained with 7-aminoactinomycin D (7-AAD, CAS no. 7240-37-1) and Hoechst 33342 (CAS no. 23491-52-3) and analyzed by flow cytometry. […] Cell number was calculated by volumetric count. A. The mean (symbol) for each AML cell line and standard deviation (error bars) from 6 different biological replicates are represented. B. The average corresponding to the four different AML cell lines is represented. *p<0.05.
FIG. 2. […] Cell number was calculated by volumetric count. A. The mean (symbol) for each AML cell line and standard deviation (error bars) from 6 different biological replicates are represented. B. AML cell lines were treated with 10 μM Apomorphine or Methiothepin in the presence or absence of 5-CT or 5-HT. *p<0.05. Apo: apomorphine; Methio: methiothepine.
In order to test the anti-leukaemic effect of 5HTR antagonists, HL-60 (Collins, Gallo et al. Nature. 1977; 270(5635):347-9), MonoMac-1 (Steube, Teepe et al. Leuk Res. 1997; 21(4):327-35), KG-1 (Koeffler and Golde. Science. 1978; 200(4346):1153-4) and Kasumi-1 (Asou, Tashiro et al. Blood. 1991; 77(9):2031-6) AML (Acute Myeloid Leukaemia) cell lines were treated with the broad 5HTR antagonist Apomorphine (CAS no. 314-19-2) at different doses for 72 h. One million cells per mL were seeded in complete RPMI media supplemented with 10% fetal bovine serum in a 96-well plate. The concentration used for the Apomorphine treatment was 0.1, 1 and 10 μM.
The human 5HTR family is composed by 7 subtypes (from 1 to 7) of receptors […]. HL-60, KG-1, MonoMac-1 and Kasumi-1 AML cell lines were incubated with subtype-specific 5HTR antagonists: Apomorphine (type 1, 2 and 5), Methiothepin (type 1 and 2) (CAS no. 74611-28-2), Amperozide (type 2) (CAS no. 75558-90-6), GR113808 (type 4) (CAS no. 144625-51-4). 72 h after treatment, cell viability was determined by flow cytometry. Cells were stained with 7-AAD (CAS no. 7240-37-1) and Hoechst 33342 (CAS no. 23491-52-3). Viability cells were identified by 7-AAD staining exclusion and the presence of Hoechst positive stain. Cell counts were measured by volume. […] In fact, the anti-leukaemic effect was reversed in the presence of a competitive agonist such as the natural ligand 5-HT (CAS no. 153-98-0) or 5-CT (CAS no. 74885-72-6).

## CCNC(=O)N1CCN(CCCC(c2ccc(F)cc2)c2ccc(F)cc2)CC1 [Amperozide, 4-[4,4-bis(4-fluorophenyl)butyl]-N-ethylpiperazine-1-carboxamide]
  cell death on AML cell lines: induced cell death

## Cn1cc(C(=O)OCC2CCN(CCNS(C)(=O)=O)CC2)c2ccccc21 [GR113808]
  cell death on AML cell lines: Only Apomorphine, Methiothepin and Amperozide induced cell death

— patent publication US11337984B2, “Methods for treating, diagnosing and prognosing a haematological malignancy” (Institut de Recerca Contra La Leucèmia Josep Carreras, priority 2014, dated 2022)
